# Assays:
# Test in all cases: relative viability (nuclei count vs DMSO), 5 days (fraction); higher = more cells survive
# Decitabine + Bortezomib = compound: Nc1ncn([C@H]2C[C@H](O)[C@@H](CO)O2)c(=O)n1 [Decitabine] + CC(C)C[C@H](NC(=O)[C@H](Cc1ccccc1)NC(=O)c1cnccn1)B(O)O [Bortezomib] (partner 0.002 µM)
# Outline: (§1)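 Dosing by pin tool came one day after lung cancer cell lines were seeded in 1536-well plates, using either one drug or a fixed anchor-drug dose plus five library-drug doses (not always all listed) in √10 steps. After 5 days, nuclei were counted on 4× images. Relative viability is treated-well nuclei count divided by vehicle-well nuclei count, and values are medians of duplicate plates.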
# Decitabine + Phenformin = compound: Nc1ncn([C@H]2C[C@H](O)[C@@H](CO)O2)c(=O)n1 [Decitabine] + N=C(N)NC(=N)NCCc1ccccc1 [Phenformin] (partner 250 µM)
# Outline: as §1
# [1] = compound: O=C(C[C@H]1NCCC[C@@H]1O)Cn1cnc2cc(Br)c(Cl)cc2c1=O (racemic) [Halofuginone] + N=C(N)NC(=N)NCCc1ccccc1 [Phenformin] (partner 250 µM)
# Outline: as §1
# Decitabine + Alpelisib = compound: Nc1ncn([C@H]2C[C@H](O)[C@@H](CO)O2)c(=O)n1 [Decitabine] + Cc1nc(NC(=O)N2CCC[C@H]2C(N)=O)sc1-c1ccnc(C(C)(C)C(F)(F)F)c1 [Alpelisib] (partner 2 µM)
# Outline: as §1
cell line,measurement,setting,value
UMC-11,relative viability,Decitabine + Bortezomib; first compound 0.04 µM,0.681
same,relative viability,Decitabine + Bortezomib; first compound 0.1265 µM,0.58
same,relative viability,Decitabine + Bortezomib; first compound 0.4 µM,0.31
same,relative viability,Decitabine + Bortezomib; first compound 1.265 µM,0.275
same,relative viability,Decitabine + Bortezomib; first compound 4 µM,0.252
same,relative viability,Decitabine + Phenformin; first compound 0.04 µM,0.31
same,relative viability,Decitabine + Phenformin; first compound 0.1265 µM,0.32
same,relative viability,Decitabine + Phenformin; first compound 0.4 µM,0.308
same,relative viability,Decitabine + Phenformin; first compound 1.265 µM,0.266
same,relative viability,Decitabine + Phenformin; first compound 4 µM,0.274
same,relative viability,[1]; first compound 0.001 µM,0.345
same,relative viability,[1]; first compound 0.003162 µM,0.343
same,relative viability,[1]; first compound 0.01 µM,0.324
same,relative viability,[1]; first compound 0.03162 µM,0.316
same,relative viability,[1]; first compound 0.1 µM,0.267
same,relative viability,Decitabine + Alpelisib; first compound 0.04 µM,0.848
same,relative viability,Decitabine + Alpelisib; first compound 0.1265 µM,0.535
same,relative viability,Decitabine + Alpelisib; first compound 0.4 µM,0.481
same,relative viability,Decitabine + Alpelisib; first compound 1.265 µM,0.309
same,relative viability,Decitabine + Alpelisib; first compound 4 µM,0.281

# Source: the supplement of paper PMC10307832
